The values that follow come from US6541514B2, “Process for the manufacture of 117Sn diethylenetriaminepentaacetic acids” (Brookhaven Science Associates, LLC, priority 2001, dated 2003).

For series [1] the following is noted: cited from earlier work; for relief of bone pain: humans.
The conditions of series [2]: cited from earlier work; for myelosuppression / bone marrow toxicity: in vivo.
For series [3] the following is noted: in vivo; cited from earlier work.
Series [4] has as its system Chinese hamster V79 cells. In words: Radiotoxicity in cultured mammalian cells (colony survival). It is filed as cell-based. The note with it: 14 h labeling, 72 h at 10.5° C.
Method: The present study examines the radiotoxicity of composition of the invention when incorporated into cultured mammalian cells.
The cells were then resuspended in fresh culture medium and maintained at 10.5° C. on a rocker-roller for 72 h. Cells were then washed again, serially diluted, and seeded into culture dishes. After 1 week the colonies were stained and counted, the surviving fraction compared to unlabeled controls was determined.

Read-outs that look alike come from different tables or passages of the source.

Take `O=P([O-])(O)CN(CCN(CP(=O)([O-])O)CP(=O)(O)O)CP(=O)([O-])O.[153Sm+3]` [^153Sm-EDTMP, ^153Sm ethylenediaminetetramethylenephosphonate (EDTMP) complex]: in series [1] (patients), the “duration of pain relief / response” value is “four to forty weeks” and the “time to pain relief / clinical benefit after administration” value (“time to pain relief / clinical benefit” below) was “within two weeks”. Moreover, the “myelosuppression / bone marrow toxicity” value in series [2] is “Reversible myelosuppression”.

On to `O=[32P](O)(O)O` [^32P orthophosphate], for which, in series [1] (patients), the “duration of pain relief / response” value was “two to four months” and the “time to pain relief / clinical benefit” value is given as “within five to fourteen days”. In series [3], the “increase in uptake in bone around osseous metastases as compared to normal bone” value is on record as 3- to 5 fold.

Consider “^117mSn (Sn^4+) diethylenetriaminepentaacetic acid (DTPA) [^117mSn(Sn^4+)DTPA]”, for which the “cellular uptake required to achieve 37% survival” value in series [4] was determined as 0.95 mBq/cell. Further, the figures for the “relief of bone pain” value in series [1] and in series [1] (listed as 117mSn (Sn^4+) DTPA) were “effective agent for palliation of pain caused by bone metastases” and “dose-dependent relief of bone pain”, respectively. Moreover, the “myelosuppression / bone marrow toxicity” value was “no substantial toxicity to marrow tissues” in series [2] and “None of the ^117mSn (Sn^4+) DTPA compositions used in WO 95/29706 exhibited bone marrow toxicity” in series [2] (listed as 117mSn (Sn^4+) DTPA). In addition, in series [3], the “bone uptake and retention compared with 32P orthophosphate, 153Sm-EDTMP, 186Re-HEDP and 89SrCl2” value is “higher bone uptake and retention”.

For the molecule `[89Sr+2].[Cl-].[Cl-]` [^89Sr, ^89SrCl2], in series [1] (patients), the “duration of pain relief / response” value is on record as “three to six months”, the “patients with bone pain / symptom relief” value is on record as 60 to 80% and the “time to pain relief / clinical benefit” value was “two to four weeks after injection”. Further, the “decrease in platelet count” value in series [2] (four weeks after therapy) is 30%. For the same molecule, in series [3], the “biological half-life in normal bone” value is 14 days and the “biological half-life in osteoblastic metastases” value is recorded as “exceeds 50 days”.
